In PubChem BioAssay (NCI):
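Method: 48-hour compound exposure of cells in 96-well plates, five concentrations, linear interpolation of endpoints. At the GI50, growth is halved. The concentration for full growth arrest is given as TGI.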

Tests used:
Experiment in all cases: inhibition of tumour cell growth, NCI panel, 48 h
LOX IMVI melanoma = tested on: LOX IMVI melanoma
MALME-3M melanoma = tested on: MALME-3M melanoma
MOLT-4 leukemia = tested on: MOLT-4 leukemia
NCI-H23 lung = tested on: NCI-H23 lung
OVCAR-3 ovarian = tested on: OVCAR-3 ovarian
OVCAR-4 ovarian = tested on: OVCAR-4 ovarian
SK-MEL-5 melanoma = tested on: SK-MEL-5 melanoma
SN12C renal = tested on: SN12C renal
SNB-19 CNS = tested on: SNB-19 CNS
UO-31 renal = tested on: UO-31 renal

| SMILES | GI50 (LOX IMVI melanoma) | TGI (LOX IMVI melanoma) | GI50 (MALME-3M melanoma) | TGI (MALME-3M melanoma) | GI50 (MOLT-4 leukemia) | TGI (MOLT-4 leukemia) | GI50 (NCI-H23 lung) | TGI (NCI-H23 lung) | GI50 (OVCAR-3 ovarian) | TGI (OVCAR-3 ovarian) | GI50 (OVCAR-4 ovarian) | TGI (OVCAR-4 ovarian) | GI50 (SK-MEL-5 melanoma) | TGI (SK-MEL-5 melanoma) | GI50 (SN12C renal) | TGI (SN12C renal) | GI50 (SNB-19 CNS) | TGI (SNB-19 CNS) | GI50 (UO-31 renal) | TGI (UO-31 renal) |
| --- | --- | --- | --- | --- | --- | --- | --- | --- | --- | --- | --- | --- | --- | --- | --- | --- | --- | --- | --- | --- |
| Fc1ccc(Nc2nccc(-c3c(-c4ccc(C(F)(F)F)cc4)nn4ncccc34)n2)cc1F | > 25 µM | > 25 µM | > 25 µM | > 25 µM | > 25 µM | > 25 µM | > 25 µM | > 25 µM | > 25 µM | > 25 µM | > 25 µM | > 25 µM | > 25 µM | > 25 µM | > 25 µM | > 25 µM | > 25 µM | > 25 µM | > 25 µM | > 25 µM |
| CCCCC[C@H]1C/C=C2/C(=O)C(Cl)=C[C@@H]2C/C=C\CCCC(=O)O[C@@H](CCCCC)C/C=C2/C(=O)C(Cl)=C[C@@H]2C/C=C\CCCC(=O)O1 | 0.201 µM | 0.437 µM | 0.504 µM | 1.85 µM | 0.234 µM | 1.71 µM | 0.34 µM | 0.838 µM | 0.268 µM | 0.555 µM | 0.461 µM | 1.79 µM | 0.325 µM | 0.659 µM | 0.482 µM | 2.72 µM | 0.549 µM | 2.24 µM | 0.269 µM | 0.508 µM |
| CC(C)(Br)C(=O)/C=C/c1ccccc1 |  | 9.75 µM |  | 10.2 µM |  | > 43.7 µM |  | 5 µM |  | 25.4 µM |  | 5.58 µM |  | 27.5 µM |  | 22.5 µM |  | 78.3 µM |  | 3.68 µM |
| CCOC(=O)c1c(C)n(Cc2ccc(Cl)cc2Cl)c2c1cc1oc(=O)c(=O)n3c(Cc4ccccc4)nc2c13 | 1.83 µM | 3.38 µM | 5.3 µM | 12.9 µM | 2.12 µM | 4.55 µM | 2.8 µM | 7.3 µM | 1.91 µM | 4.44 µM | 4.45 µM | 16.4 µM | 1.97 µM | 3.54 µM | 2.22 µM | 4.56 µM | 6.12 µM | 20.9 µM | 3.77 µM | 15 µM |
| CC(=O)C1=C([O-])C(C)OC1=O.CC(=O)C1=C([O-])C(C)OC1=O.[NH-]C1CCCC[C@H]1[NH-].[Pt+4] (stereo not given) | 96.6 µM | > 100 µM | 48 µM | > 100 µM | 3.9 µM | 53.9 µM | 47.5 µM | > 100 µM | > 100 µM | > 100 µM | 88.9 µM | > 100 µM | 57.5 µM | > 100 µM | 41.6 µM | > 100 µM | > 100 µM | > 100 µM | > 100 µM | > 100 µM |
